Four compounds from US8349577B2, “Method for evaluating blood-neural barrier permeability” (Research Foundation For Mental Hygiene, Inc., priority 2010, dated 2013) can be followed below.

“Also recorded” adds a separate entry of the source.

One assay deals with recombinant sPLA2. As to the kind of experiment: Continuous fluorescence PLA2 activity assay with recombinant sPLA2 (Bis-BODIPY FL C11-PC-labeled DOPC liposomes). It counts as biochemical. The following applies: for Inhibition of PLA2 activity from recombinant sPLA2: recombinant sPLA2 incubated with inhibitor, FIGS. 3A-3C. As to the method: (§1) PLA2 activity assays were carried out in triplicates using a continuous fluorescent measurement. In a 96-well microplate, 5 μL lumbar CSF (or 10 μM recombinant sPLA2) was diluted in 90 μL PLA2 assay buffer (10 mM Tris-HCl, pH 7.4; 100 mM KCl; 5 mM CaCl2; 1 mM DTT). Then, 5 μL Bis-BODIPY® FL C11-PC-labeled 100% DOPC liposomes were added to each well and the microplate was immediately placed in a temperature controlled (30° C.) cytofluor multi-well plate reader series 4000 (PerSeptive Biosystems®, Foster City, Calif.). The fluorescence intensity was recorded over 90 min (91 cycles of 60 sec each) at 485 nm excitation and 530 nm emission. Finally, PLA2 activity was evaluated using linear curve fitting with Graph Prism 3.0 (GraphPad Software™, San Diego, Calif.).
(§2) Although there are currently twenty-two different PLA2 enzymes classified in five families (sPLA2, cPLA2, iPLA2, PAF-AH and lysosomal PLA2), there is currently no known tool for the specific characterization of each of these isozymes. Thus, to characterize the activity of each new PLA2 the current approach is to determine to which family the PLA2 enzyme belongs. For this purpose, a battery of inhibitors more or less specific against each PLA2 family is generally used to discriminate one family from another.
(§3) Stock solutions and serial dilutions of PLA2 inhibitors (AACOCF3, BEL and Thioetheramide-PC) were prepared in PLA2 assay buffer supplemented by 4.25 mM Triton X-100. Each assay was carried out in the absence or presence of 5 μL of the appropriate inhibitor.

Assay [1] relates to PLA2 activity in lumbar CSF. The experiment in a line: Continuous fluorescence PLA2 activity assay with lumbar CSF (Bis-BODIPY FL C11-PC-labeled DOPC liposomes). It counts as biochemical, human. The following applies: for Inhibition of PLA2 activity from lumbar CSF: 5 μL lumbar CSF incubated with inhibitor, FIGS. 3A-3C. The procedure:
as §1, §2, §3

Setting [2] is: various concentrations of calcium, FIG. 3D.

For `CCCCC/C=C\C/C=C\C/C=C\C/C=C\CCCC(=O)C(F)(F)F` [AACOCF3], in the assay with recombinant sPLA2, the “Inhibition of PLA2 activity from recombinant sPLA2” value (“Inhibition … from recombinant sPLA2” for short) was “failed to do so”. In addition, the “Inhibition of PLA2 activity from lumbar CSF” value (from here on “Inhibition … from lumbar CSF”) in assay [1] is “not and failed to do so”.

Turning to `O=C1O/C(=C/Br)CCC1c1cccc2ccccc12` (centres unmarked) [BEL], in the assay on recombinant sPLA2, the “Inhibition … from recombinant sPLA2” value was “failed to do so”. The “Inhibition … from lumbar CSF” value in assay [1] was “not and failed to do so”.

With calcium, the “Effect of increasing calcium concentration on recombinant sPLA2 activity” value in the assay on recombinant sPLA2 (setting [2]) is “increase of PLA2 activity”. In addition, the “Effect of increasing calcium concentration on PLA2 activity in lumbar CSF” value in assay [1] (setting [2]) is listed as “increase of PLA2 activity”.

Turning to `CCCCCCCCCCCCCCCCSC[C@H](COP(=O)(O)OCC[N+](C)(C)C)NC(=O)CCCCCCCCCCCCCCC` [thioetheramide-PC], the “Inhibition … from recombinant sPLA2” value in the assay with recombinant sPLA2 is reported as “dose-dependently inhibited”. Further, the “Inhibition … from lumbar CSF” value in assay [1] is given as “strongly inhibited; also recorded: dose-dependently inhibited”.
